According to patent US9394285B2 (Pfizer Inc., priority 2013, dated 2016):

Target: human AMPK (full-length γ1, β1 and α1 subunits) (Homo sapiens (Human), UniProt Q13131+Q9Y478)
Test: AMPK in vitro biochemical assay (33P-based, SAMS peptide, PP2A dephosphorylation)
Conditions: for EC50: activation of phosphorylated AMPK, 33P-ATP, SAMS peptide, PP2A treatment, 4-parameter fit; for Emax / Maximum: counts as % of positive control wells (enzyme, allosteric activator or AMP, PP2A and substrate); for Emax: read-out: Maximum
How it was run: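 Phosphorylated full-length α1β1γ1 AMPK (E. coli-expressed, His-purified, gel-filtered) preincubated 15 min RT with compound in HEPES pH 7.5, 10 mM MgCl2 buffer, then PP2A added to dephosphorylate pThr172.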

Sequence of human AMPK (full-length γ1, β1 and α1 subunits) (Q13131 whole entry): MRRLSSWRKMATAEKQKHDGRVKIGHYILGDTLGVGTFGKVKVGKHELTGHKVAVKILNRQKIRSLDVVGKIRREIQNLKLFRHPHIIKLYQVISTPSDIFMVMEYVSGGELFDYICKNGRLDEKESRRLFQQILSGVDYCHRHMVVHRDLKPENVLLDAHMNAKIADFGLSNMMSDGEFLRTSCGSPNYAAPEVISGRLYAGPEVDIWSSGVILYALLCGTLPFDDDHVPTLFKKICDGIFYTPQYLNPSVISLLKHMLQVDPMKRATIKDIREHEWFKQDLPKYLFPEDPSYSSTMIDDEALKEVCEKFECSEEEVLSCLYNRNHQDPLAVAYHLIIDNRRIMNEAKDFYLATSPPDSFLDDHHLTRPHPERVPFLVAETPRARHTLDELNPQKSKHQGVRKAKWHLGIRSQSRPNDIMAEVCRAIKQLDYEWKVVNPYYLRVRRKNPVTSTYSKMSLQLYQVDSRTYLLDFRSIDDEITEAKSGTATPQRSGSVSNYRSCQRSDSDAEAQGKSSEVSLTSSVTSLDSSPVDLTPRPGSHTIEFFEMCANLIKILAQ
Sequence of human AMPK (full-length γ1, β1 and α1 subunits) (Q9Y478 whole entry): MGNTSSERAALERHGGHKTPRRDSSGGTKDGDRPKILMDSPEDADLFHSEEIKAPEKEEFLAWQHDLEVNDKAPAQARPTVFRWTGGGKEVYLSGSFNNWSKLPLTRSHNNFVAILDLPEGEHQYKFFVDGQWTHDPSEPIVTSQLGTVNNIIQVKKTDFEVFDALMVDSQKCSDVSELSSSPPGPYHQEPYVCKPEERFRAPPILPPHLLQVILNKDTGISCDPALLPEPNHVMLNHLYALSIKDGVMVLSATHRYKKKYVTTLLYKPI
Sequence of human AMPK (full-length γ1, β1 and α1 subunits) (P54619 whole entry partner): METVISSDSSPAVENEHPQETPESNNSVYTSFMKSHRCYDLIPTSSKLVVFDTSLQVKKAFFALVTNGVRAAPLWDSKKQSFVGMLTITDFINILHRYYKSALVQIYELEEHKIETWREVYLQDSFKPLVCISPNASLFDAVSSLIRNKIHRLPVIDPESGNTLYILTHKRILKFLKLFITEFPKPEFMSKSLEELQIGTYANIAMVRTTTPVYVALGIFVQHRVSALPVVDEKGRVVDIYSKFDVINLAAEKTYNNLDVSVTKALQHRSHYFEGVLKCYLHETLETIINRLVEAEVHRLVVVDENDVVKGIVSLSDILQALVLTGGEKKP

Structure (SMILES)	EC50 [nM]	Emax [%]	Maximum [%]
CC(=O)N1CC(COc2ccc(-c3cc4c(C(=O)O)c[nH]c4cc3Cl)cc2)C1 [Example 9, 5-{4-[(1-acetylazetidin-3-yl)methoxy]phenyl}-6-chloro-1H-indole-3-carboxylic acid]	71.2	81	
Cc1cc2[nH]cc(C(=O)O)c2cc1-c1ccc(C2(CO)CC2)cc1 [Example 27, 5-{4-[1-(hydroxymethyl)cyclopropyl]phenyl}-6-methyl-1H-indole-3-carboxylic acid]	36.9	107	
O=C(O)c1c[nH]c2cc(F)c(-c3ccc(C4(O)COC4)cc3)c(F)c12 [Example 20, 4,6-difluoro-5-[4-(3-hydroxyoxetan-3-yl)phenyl]-1H-indole-3-carboxylic acid]	53.6	62	
O=C1COC(c2ccc(-c3cc4c(C(=O)O)c[nH]c4cc3Cl)cc2)CN1 (stereo not drawn) [Example 79, 6-chloro-5-[4-(5-oxomorpholin-2-yl)phenyl]-1H-indole-3-carboxylic acid]	104	102	
O=C(O)c1c[nH]c2cc(Cl)c(-c3cnc(N4CCOCC4)nc3)cc12 [Example 76, 6-chloro-5-[2-(morpholin-4-yl)pyrimidin-5-yl]-1H-indole-3-carboxylic acid]	271	104	
O=C(O)c1c[nH]c2cc(Cl)c(-c3ccc(OCCCC4COC4)cc3)cc12 [Example 157, 6-chloro-5-(4-(3-(oxetan-3-yl)propoxy)phenyl)-1H-indole-3-carboxylic acid]	50.1	96.1	
CS(=O)(=O)N1CCC(c2ccc(-c3cc4c(C(=O)O)c[nH]c4cc3Cl)cc2)C1 (stereo not drawn) [Example 16, 6-chloro-5-{4-[1-(methylsulfonyl)pyrrolidin-3-yl]phenyl}-1H-indole-3-carboxylic acid]	412	114	
O=C(O)c1c[nH]c2cc(Cl)c(-c3ccc(C4CNC4)cc3)cc12 [Example 91, 5-[4-(azetidin-3-yl)phenyl]-6-chloro-1H-indole-3-carboxylic acid]	695	101	
O=C(O)c1c[nH]c2cc(Cl)c(-c3ccc(C4(O)COC4)cc3)cc12 [Example 5, 6-Chloro-5-(4-(3-hydroxyoxetan-3-yl)phenyl)-1H-indole-3-carboxylic acid]	35.7	78	
COc1cc(-c2c(F)cc3[nH]cc(C(=O)O)c3c2F)ccc1C1(O)CCC1 [Example 145]	57.9	65.2	
CC(C)(CO)c1ccc(-c2cc3c(C(=O)O)c[nH]c3cc2Cl)cc1 [Example 36, 6-chloro-5-[4-(1-hydroxy-2-methylpropan-2-yl)phenyl]-1H-indole-3-carboxylic acid]	7.1	70	
COc1cc(-c2cc3c(C(=O)O)c[nH]c3cc2F)ccc1C1(O)CCC1 [Example 25, 6-fluoro-5-[4-(1-hydroxycyclobutyl)-3-methoxyphenyl]-1H-indole-3-carboxylic acid]	111	78	
COC1CCN(CCCOc2ccc(-c3cc4c(C(=O)O)c[nH]c4cc3Cl)cc2)CC1 [Example 187, 6-chloro-5-{4-[3-(4-methoxypiperidin-1-yl)propoxy]phenyl}-1H-indole-3-carboxylic acid]	61.4	105	
O=C(O)c1c[nH]c2cc(Cl)c(-c3ccc(C4CCN4)cc3)cc12 (stereo not drawn) [Example 63, 5-(4-azetidin-2-yl-phenyl)-6-chloro-1H-indole-3-carboxylic acid]	432	89	
O=C(O)c1c[nH]c2cc(F)c(-c3ccc(C4CCCO4)cc3)c(F)c12 (stereo not drawn) [Example 152, 4,6-difluoro-5-[4-(tetrahydrofuran-2-yl)phenyl]-1H-indole-3-carboxylic acid]		112	
COc1cc(-c2cc3c(C(=O)O)n[nH]c3cc2Cl)ccc1C1(O)CCC1 [Example 131, 6-Chloro-5-[4-(1-hydroxycyclobutyl)-3-methoxyphenyl]-1H-indazole-3-carboxylic acid]	17.9	95	

Now from value to molecule:

EC50 [nM]	Emax [%]	Maximum [%]	Structure (SMILES)
216	86		CNC(=O)COc1ccc(-c2cc3c(C(=O)O)c[nH]c3cc2Cl)cc1 [Example 82, 6-chloro-5-{4-[2-(methylamino)-2-oxoethoxy]phenyl}-1H-indole-3-carboxylic acid]
9.33		143.1	O=C(O)c1c[nH]c2cc(F)c(-c3ccc(C4(CO)CCC4)cc3)c(F)c12 [Example 167, 4,6-difluoro-5-{4-[1-(hydroxymethyl)cyclobutyl]phenyl}-1H-indole-3-carboxylic acid]
137			O=C(O)c1c[nH]c2cc(F)c(-c3ccc(C4CCCO4)cc3)c(F)c12 (single isomer, unassigned) [Example 153, 4,6-difluoro-5-[4-(tetrahydrofuran-2-yl)phenyl]-1H-indole-3-carboxylic acid]
124	74		CC(C)(CO)c1ccc(-c2c(F)cc3[nH]cc(C(=O)O)c3c2F)cc1 [Example 26, 4,6-difluoro-5-[4-(1-hydroxy-2-methylpropan-2-yl)phenyl]-1H-indole-3-carboxylic acid]
36.5	88		O=C(O)c1n[nH]c2cc(Cl)c(-c3ccc(C4CCOCC4)cc3)cc12 [Example 104, 6-Chloro-5-(4-(tetrahydro-2H-pyran-4-yl)phenyl)-1H-indazole-3-carboxylic acid]
100	57		NC(=O)Cc1ccc(-c2cc3c(C(=O)O)n[nH]c3cc2Cl)cc1 [Example 123, 5-(4-(2-Amino-2-oxoethyl)phenyl)-6-chloro-1H-indazole-3-carboxylic acid]
129	107		O=C(O)c1c[nH]c2cc(F)c(-c3ccc(C4CCOCC4)cc3)c(F)c12 [Example 166, 4,6-difluoro-5-[4-(tetrahydro-2H-pyran-4-yl)phenyl]-1H-indole-3-carboxylic acid]
62.3	111		COc1cc(-c2cc3c(C(=O)NS(C)(=O)=O)c[nH]c3cc2Cl)ccc1C(C)(C)CO [Example 177, 6-chloro-5-[4-(1-hydroxy-2-methylpropan-2-yl)-3-methoxyphenyl]-N-(methylsulfonyl)-1H-indole-3-carboxamide]
315	122		COc1ccc(-c2cc3c(C(=O)O)c[nH]c3cc2F)cc1 [Example 34, 6-Fluoro-5-(4-methoxy-phenyl)-1H-indole-3-carboxylic acid]
		112.3	O=C(O)c1c[nH]c2cc(F)c(-c3ccc(C4CCCO4)cc3)c(F)c12 (stereo not drawn) [Example 153, 4,6-difluoro-5-[4-(tetrahydrofuran-2-yl)phenyl]-1H-indole-3-carboxylic acid]
264	74		N#Cc1cc(C2(O)CCC2)ccc1-c1cc2c(C(=O)O)c[nH]c2cc1Cl [Example 69, 6-chloro-5-[2-cyano-4-(1-hydroxycyclobutyl)phenyl]-1H-indole-3-carboxylic acid]
570	97		COc1ccc(-c2cc3c(C(=O)O)c[nH]c3cc2C#N)cc1 [Example 32, 6-Cyano-5-(4-methoxyphenyl)-1H-indole-3-carboxylic acid]
151	100		COC(=O)N1CCC(c2ccc(-c3cc4c(C(=O)O)c[nH]c4cc3Cl)cc2)C1 (racemic) [Example 14, 6-chloro-5-{4-[1-(methoxycarbonyl)pyrrolidin-3-yl]phenyl}-1H-indole-3-carboxylic acid]
209	87		COc1cc(-c2cc3c(C(=O)O)c[nH]c3cc2Cl)ccc1OC[C@@H]1CCCN1 [Example 55, (S)-6-Chloro-5-(3-methoxy-4-(pyrrolidin-2-ylmethoxy)phenyl)-1H-indole-3-carboxylic acid]
32.9		69.2	O=C(O)c1c[nH]c2cc(F)c(-c3ccc(C4CCCCO4)cc3)cc12 (single isomer, unassigned) [Example 171, 6-fluoro-5-[4-(tetrahydro-2H-pyran-2-yl)phenyl]-1H-indole-3-carboxylic acid]
344	72		CS(=O)(=O)N1CCCC1c1ccc(-c2cc3c(C(=O)O)c[nH]c3cc2Cl)cc1 (stereo not drawn) [Example 84, 6-chloro-5-{4-[1-(methylsulfonyl)pyrrolidin-2-yl]phenyl}-1H-indole-3-carboxylic acid]
175	12		O=C(O)c1n[nH]c2cc(Cl)c(-c3ccc(CO)cc3)cc12 [Example 111, 6-Chloro-5-(4-(hydroxymethyl)phenyl)-1H-indazole-3-carboxylic acid]
6.9	73		O=C(O)c1c[nH]c2cc(Cl)c(-c3ccc(C4(O)CCC4)cc3F)cc12 [Example 13, 6-chloro-5-[2-fluoro-4-(1-hydroxycyclobutyl)phenyl]-1H-indole-3-carboxylic acid]
52.7	129		CN1CCN(CCCOc2ccc(-c3cc4c(C(=O)O)c[nH]c4cc3Cl)cc2)CC1=O [Example 188, 6-chloro-5-{4-[3-(4-methyl-3-oxopiperazin-1-yl)propoxy]phenyl}-1H-indole-3-carboxylic acid]
27	95		CC(C)(CO)c1ccc(-c2cc3c(C(=O)O)n[nH]c3cc2Cl)cc1 [Example 115, 6-Chloro-5-(4-(1-hydroxy-2-methylpropan-2-yl)phenyl)-1H-indazole-3-carboxylic acid]
74.2	72		Cc1cc2[nH]cc(C(=O)O)c2cc1-c1ccc(C2(O)CCC2)cc1 [Example 35, 5-[4-(1-hydroxycyclobutyl)phenyl]-6-methyl-1H-indole-3-carboxylic acid]
16.7			O=C(O)c1c[nH]c2cc(F)c(-c3ccc(C4CCCO4)cc3)c(F)c12 (single isomer, unassigned) [Example 152, 4,6-difluoro-5-[4-(tetrahydrofuran-2-yl)phenyl]-1H-indole-3-carboxylic acid]
